From patent publication US20020049173A1, “Alteration of cellular behavior by antisense modulation of mRNA processing” (priority 1999, published 2002)
In the oligonucleotide strings, read from the 5' end, every base follows the letter of its sugar. An asterisk marks phosphorothioate; unmarked linkages are phosphodiester. Other units and linkages are bracketed, terminal groups are in braces. A string of capitals states the bases alone. e = 2'-O-(2-methoxyethyl) (MOE); [5mC] = 5-methylcytosine

Tests used:
[1] = tested on: E-selectin mRNA; assay: Non-quantitative RT-PCR of E-selectin Type I, II and III transcripts in HUVEC; format: cell-based, human; conditions: relative to untreated cells, 200 nM stated for ISIS 106344
Experimental: (§1) Total RNA was harvested from HUVEC at various times following TNF-α induction using a ToTALLY RNA kit (Ambion) according to the manufacturer's protocol). For Northern blots, RNA was separated on a 1.2% agarose gel containing 1.1% formaldehyde, then transferred to nylon membranes. Blots were hybridized with [^32P]-dCTP random prime labeled cDNA probes specific for E-selectin or […] (G3PDH) for 2 hours in Rapid-hyb solution (Amersham). Blots were washed with 2×SSC containing 0.1% SDS at room temperature, followed by 0.1×SSC containing 0.1% SDS at 60° C. Quantitation of RNA expression was performed using a Molecular Dynamics PhosphorImager. Anchored reverse transcriptase polymerase chain reaction (RT/PCR) was performed essentially as described by Chu et al. (supra.).
To determine if processing could be controlled more specifically, oligonucleotides were also designed to the upstream polyadenylation signals. Non-quantitative RT-PCR was used to distinguish among the three forms of the message. In the absence of oligonucleotide, all three types of transcript were detected. […] This difference may be due to variation in the efficiency of PCR amplification on the varying length products, with the shorter Type I and II messages being more efficiently amplified than the Type III product. […] To determine if the effects of ISIS 106344 were unique, antisense oligonucleotides were designed to the Type I and Type II polyadenylation sites.
To evaluate whether treatment with two oligonucleotides would result in the production of a single species of E-selectin message, HUVEC were treated with ISIS 106344, and either ISIS 135568 or ISIS 135570 (150 nM each). […] Cells were also treated with both ISIS 135568 and ISIS 135570.

[2] = tested on: human bcl-x mRNA; assay: Total bcl-x mRNA and bcl-xs/bcl-xl ratio in A549 cells, RNase protection; format: cell-based
[3] = tested on: human bcl-xs mRNA; assay: bcl-xs mRNA in A549 cells, RIBOQUANT RNase protection; format: cell-based; conditions: 200 nM oligonucleotide (Table 15)
Text: (§2) In accordance with the present invention, a series of oligonucleotides were designed to target different regions of human bcl-x RNA, using published sequences (Boise, L. H., et al., 1993, Cell 74, 597-608; Genbank Accession No. L20121, locus name “HSBCLXL,” incorporated herein as SEQ ID NO: 39). Antisense oligonucleotides were designed to target areas of exon 1 and exon 2 of human bcl-x, particularly around the exon 1/exon 2 splice site and in sequence regions present in bcl-xl but not in bcl-xs. All backbone linkages are phosphorothioates; All 2′MOE cytosines are 5-methylcytosines.
(§3) Oligonucleotides were evaluated for their respective effects on bcl-xs and bcl-xl3 mRNA levels in A549 cells along with total bcl-x mRNA levels, using the RIBOQUANT™ RNase protection kit (Pharmingen, San Diego Calif.). All assays were performed according to manufacturer's protocols.
(§4) A “walk” was done in this region with 20mer 2′-MOE phosphorothioate oligonucleotides targeted to sequences whose 5′ ends were 24, 26, 29, 31, 33, 37, 39, 41, 43, 44, 45 and 47 bases upstream of the splice site. These oligonucleotides were screened as before at a dose of 200 nM oligonucleotide for effect on short and long bcl-x transcripts.

[4] = tested on: human bcl-xl mRNA; assay: bcl-xl mRNA in A549 cells, RIBOQUANT RNase protection; format: cell-based; conditions: 200 nM oligonucleotide (Table 15)
Text: as §2, §3, §4

[5] = tested on: human bcl-x mRNA; assay: Total bcl-x mRNA and bcl-xs/bcl-xl ratio in A549 cells, RNase protection; format: cell-based; conditions: for bcl-xs/bcl-xl: 200 nM oligonucleotide (Table 15); for ratio of bcl-xs/bcl-xl: Oligo Concentration 200 (unit not given)
Text: as §2, §3, §4

[6] = tested on: TF-1 cells; assay: IL-5-induced TF-1 cell proliferation, [3H]-thymidine incorporation; format: cell-based, human; conditions: for % of control thymidine incorporation: compared to untreated controls
Experimental: 2.5×10^4 TF-1 cells were incubated in 96-well plates in 200 μl complete RPMI in the absence of IL-5 for 16 hours following electroporation. IL-5 (0.5 ng/ml) was added and the cultures were pulsed with 1 μCi of [^3H]-thymidine for the last 8 hours of a 48-hour culture period. The cells were harvested on glass fiber filters and analyzed for thymidine incorporation (proportional to cell proliferation) by liquid scintillation counting.
Results are compared to thymidine incorporation in untreated controls.

[7] = tested on: TF-1 cells; assay: Apoptosis induction in TF-1 cells, Annexin-V staining; format: cell-based, human; conditions: 48 hours, IL-5 0.5 ng/ml
Experimental: 1×10^6 TF-1 cells cultured in IL-5 (0.5 ng/ml) were collected 48 hours following oligonucleotide treatment (transfection was by electroporation as described in previous examples) and phosphatidylserine expression was detected as a measure of apoptosis using the Annexin-V staining kit (Clontech, Palo Alto, Calif.) according to the manufacturer's instructions. Briefly, cells were resuspended in 0.2 ml of staining buffer (10 mM Hepes, pH 7.4, 140 mM NaCl, 5 mM CaCl2) and […] of propidium iodide (50 μg/ml) and 5 μl of Annexin V reagent were added at 4° C. for 10 minutes. The samples were diluted with FacsFlow (Becton Dickinson, Franklin Lakes N.J.) buffer and analyzed on a Becton Dickinson FACScan.

[8] = tested on: Human IL-5 receptorα membrane form mRNA; assay: Human IL-5 receptorα membrane form mRNA expression (18 hr); format: cell-based; parameters: % INHIB'N, human IL-5 receptorα membrane form mRNA / % of CONTROL, human IL-5 receptorα membrane form mRNA: concentration or dose not given beside the values
Text: mRNA transcripts encoding the membrane form of the human IL-5 receptorα contain exons 1-10 and 12-14. Exon 11 is spliced out. It is, therefore, possible to target sequences in exons 1-10 which are common to both soluble and membrane forms of the receptor, or to selectively target sequences only present in the membrane form (exons 12-14). Oligonucleotides were also designed to target various intron/exon boundaries downstream of exon 11, with the intention of preventing successful splicing out of exon 11 and thus redirecting splice products away from the membrane form and in favor of the soluble form of IL-5 receptorα.
(§5) A series of oligonucleotides were designed to target various splice sites or (intron-exon boundaries) in the IL-5 receptor mRNA.

[9] = tested on: Human IL-5 receptorα; assay: Human IL-5 receptorα protein expression on the cell surface (36 hr), TF-1 cells; format: cell-based; parameters: % INHIB, human IL-5 receptorα protein on the cell surface / % of CONTROL, human IL-5 receptorα protein on the cell surface: concentration or dose not given beside the values
Text: as §5
ISIS 16746, 16748, 16755 and 16758 inhibited human IL-5 receptorα protein by over 50% in this assay and are therefore preferred. ISIS 16758 and 16755 were chosen for further study.

[10] = tested on: E-selectin mRNA (Type III polyadenylation signal and site); assay: E-selectin transcript forms by Northern blot in TNF-α-induced HUVEC; format: cell-based, human; conditions: increasing oligonucleotide dose, TNF-α 2 hours
Experimental: HUVEC (Clonetics, San Diego, Calif.) were cultivated in endothelial basal media supplemented with 10% fetal bovine serum. Cells were treated with oligonucleotides as described previously (Chiang, 1991, J. Biol. Chem. 27:18162-18171; Vickers, 2000, Nucleic Acids Res. 28:1340-1347). Briefly, cells were incubated with a mixture of Lipofectin (Gibco BRL, Gaithersburg, Md.) and oligonucleotide for 4 hours. Cells were incubated for 2-24 hours, then treated with 5 ng/ml TNF-α for 2-3 hours to induce expression of E-selectin. Cells were then washed extensively with phosphate buffered saline (PBS), fresh complete media was added and cells were incubated at 37° C. until harvested.
as §1
HUVEC were treated with 2′-O-methoxyethyl (MOE)/phosphorothioate antisense oligonucleotides directed to the Type III polyadenylation signal and site (Table 1A) as described above. After about 24 hours, cells were treated with TNF-α to induce E-selectin expression. Cells were harvested after 2 hours and RNA was isolated. E-selectin expression was analyzed by Northern blotting. […] With increasing oligonucleotide dose, the longer Type III message decreased while a shorter message increased (FIG. 2). This shorter message most likely represents a combination of Type I and II messages, because the Type II message is just 158 bases longer than the Type I message, and the difference in sizes cannot be resolved on the gel which was used.

[11] = Oligo Concentration 50 (unit not given)
[12] = Oligo Concentration 100 (unit not given)
[13] = Oligo Concentration 400 (unit not given)
[14] = Oligo Concentration 600 (unit not given)

## ISIS 135568: GCTTTTATTAGTTCAAAACGTTTGG, SEQ ID 70; E-selectin Type II poly(A) signal (all 2'-MOE, all phosphorothioate, methylation of C not given here)
[1]
  Type I E-selectin message (RT-PCR): corresponding increases
  Type II E-selectin message (RT-PCR): sharp decrease
  Type III E-selectin message (RT-PCR): corresponding increases

## 26066 (ATCCAAGGCTCTAGGTGGTC; all 2'-MOE, all phosphorothioate, methylation of C not given here) [compound 26066]
[2]; [11]
  ratio of bcl-xs/bcl-xl: 6
[2]; [12]
  ratio of bcl-xs/bcl-xl: 11
[2]; [13]
  ratio of bcl-xs/bcl-xl: 25
[3]
  % CONTROL bcl-xs: 400%
[4]
  % CONTROL bcl-xl: 26%
[5]; A549 cells
  bcl-xs/bcl-xl: 15.38
[5]
  ratio of bcl-xs/bcl-xl: 24

## 22783 (e[5mC]*eT*eG*eG*eA*eT*e[5mC]*e[5mC]*eA*eA*eG*eG*e[5mC]*eT*e[5mC]*eT*eA*eG*eG*eT) [compound 22783]
[2]; [11]
  ratio of bcl-xs/bcl-xl: 3
[2]; [12]
  ratio of bcl-xs/bcl-xl: 2
[2]; [13]
  ratio of bcl-xs/bcl-xl: 24
[2]; [14]
  ratio of bcl-xs/bcl-xl: 28
[3]
  % CONTROL bcl-xs: 247%
[4]
  % CONTROL bcl-xl: 47%
[5]; A549 cells
  bcl-xs/bcl-xl: 5.25
[5]; A549 cells, no oligo 17.56
  bcl-xs/bcl-xl (%): 293.1%
[5]
  ratio of bcl-xs/bcl-xl: 7

## 16758 (antisense eT*e[5mC]*eA*eT*e[5mC]*eA*eT*eT*eT*e[5mC]*e[5mC]*eT*eG*eG*eT*eG*eG*eA*eA*eA) [compound 16758]
[6]; oligo dose 10 μM
  % of control thymidine incorporation: 42.8%
[6]; oligo dose 15 μM
  % of control thymidine incorporation: 39.2%
[6]; oligo dose 20 μM
  % of control thymidine incorporation: 19.9%
[7]; oligo dose 10 μM
  % Apoptotic cells: 33.1%
[7]; oligo dose 15 μM
  % Apoptotic cells: 40.1%
[7]; oligo dose 20 μM
  % Apoptotic cells: 50.4%
[8]; 18 hr
  % of CONTROL, human IL-5 receptorα membrane form mRNA: 176%
[9]; 36 hr
  % INHIB, human IL-5 receptorα protein on the cell surface: 94.5%
  % of CONTROL, human IL-5 receptorα protein on the cell surface: 5.5%

## ISIS 16758: TCATCATTTCCTGGTGGAAA, SEQ ID 35; I11/E12; uniform 2′-MOE (antisense eT*e[5mC]*eA*eT*e[5mC]*eA*eT*eT*eT*e[5mC]*e[5mC]*eT*eG*eG*eT*eG*eG*eA*eA*eA)
[6]; TF-1 cells
  cell proliferation in response to IL-5 (summary): greatly reduces cellular response to IL-5
[8]
  effect on IL-5 receptorα mRNA levels: without reducing mRNA levels
[9]; 36 hr
  % INHIB, human IL-5 receptorα protein on the cell surface: over 50%
[9]; TF-1 cells, read-out: IC50 for reduction of IL-5 receptorα cell surface protein
  IC50: ~5 µM

## 26080 (antisense CTGGTTACACGACTCCAGGT; mismatch control, further chemistry not given here) [compound 26080]
[2]; [13]
  ratio of bcl-xs/bcl-xl: 1
[2]; [14]
  ratio of bcl-xs/bcl-xl: 3
[5]
  ratio of bcl-xs/bcl-xl: <1

## ISIS 135570: CAGAACTTTATTCTGGTTAACATCATG, SEQ ID 71; E-selectin Type I poly(A) signal (all 2'-MOE, all phosphorothioate, methylation of C not given here)
[1]
  Type I E-selectin message (RT-PCR): greatly reduced
  Type II E-selectin message (RT-PCR): increased
  Type III E-selectin message (RT-PCR): increased

## 18011 (eT*e[5mC]*eA*eG*e[5mC]*eA*eG*eT*eT*eA*e[5mC]*eT*eT*eG*eT*eG*eT*eA*eA*eA) [compound 18011]
[6]; oligo dose 10 μM
  % of control thymidine incorporation: 95.6%
[6]; oligo dose 15 μM
  % of control thymidine incorporation: 97.9%
[6]; oligo dose 20 μM
  % of control thymidine incorporation: 84.6%
[7]; oligo dose 10 μM
  % Apoptotic cells: 19%
[7]; oligo dose 15 μM
  % Apoptotic cells: 23.6%
[7]; oligo dose 20 μM
  % Apoptotic cells: 21.8%

## ISIS 106345: AGAAAGAGACTTAACACAGA, SEQ ID 67; uniformly 2′-MOE phosphorothioate; E-selectin Type III poly(A) site (all 2'-MOE, all phosphorothioate, methylation of C not given here)
[10]
  longer Type III E-selectin message (Northern blot): decreased
  shorter E-selectin message (Type I and II) (Northern blot): increased

## 26072 (antisense CCGCCGTTCTCCTGGATCCA; all 2'-MOE, all phosphorothioate, methylation of C not given here) [compound 26072]
[3]
  % CONTROL bcl-xs: 226%
[4]
  % CONTROL bcl-xl: 42%
[5]; A549 cells
  bcl-xs/bcl-xl: 5.38
